This note sets out measurements from patent US20230250070A1, “DIHYDROOXAZOLE AND THIOUREA DERIVATIVES MODULATING THE NLRP3 INFLAMMASOME PATHWAY” (AC IMMUNE SA, priority 2020, published 2023).

Holding throughout (format): cell-based
In experiment [1] the test system is NLRP3 inflammasome pathway. Description: NLRP3 inflammasome pathway activation assay, MSU stimulation, IL-1β release (AlphaLISA). The following applies: PMA-differentiated, LPS-primed human monocyte-like cells, MSU 150 µg/ml for 3 h. How it is done: (§1) The following assays were used to determine the inhibitory activity of test compounds on the NLRP3 inflammasome pathway using common stimuli Nigericin (Invivogen) or monosodium urate crystals (MSU) (Invivogen).
(§2) Human monocyte-like cells were cultured in RPMI-1640 Glutamax medium supplemented with 10% heat inactivated FCS and 50 U/ml penicillin-streptomycin (Life Technologies).
(§3) Human monocyte-like cells were seeded at 75000 per well in a 96-well plate and were differentiated overnight into macrophages with 10 ng/ml PMA (Phorbol Myristate Acetate). The following day, medium containing 10 ng/ml LPS (Lipopolysaccharide) were added. After 3 hours of LPS priming, concentrations of test compound in the range from 100 µM to 6 nM were added 30 min prior to NLRP3 inflammasome pathway stimulation with Nigericin 3.75 µM or MSU 150 µg/ml for 3 h.
(§4) For IL-1β quantification, supernatants were analyzed using AlphaLISA kits according to the manufacturer’s instructions (Perkin Elmer AlphaLISA AL220F). Briefly, in a 384-well OptiPlate™ microplate, 5 µl of sample was mixed, with 20 µl of AlphaLISA Anti-Analyte Acceptor beads (10 µg/mL final) and Biotinylated Antibody Anti-Analyte (1 nM final). Then, incubated 60 minutes at RT, then 25 µL of 2X SA-Donor beads (40 µg/mL final) were added and incubated 30 minutes at RT in the dark. Reading was done using an EnVision-Alpha Reader (PerkinElmer).
(§5) IC50(concentration corresponding to 50% inhibition) were determined using GraphPad Prism 8.
Background: In Alpha technology, singlet oxygen from a donor bead excites a nearby acceptor bead.

The subject of experiment [2] is NLRP3 inflammasome pathway. Description: Human whole blood assay (LPS-ATP), IL-1β levels by AlphaLISA. The following applies: LPS priming, ATP activation 1 h, IL-1β in plasma. How it is done:
• Preliminary blood hemolysis assessment was performed before running the assay. Blood samples were centrifuged at 1000 g for 10 min. Then, 50 to 100 µL of blood were transferred into Corning™96-Well Clear flat bottom plate. Hemolysis was assessed via Tecan at 414 nm wavelength. Hemolysis O.D. values should be lower than 1. • Add 10 µL LPS 9× or CTRL following plate layout. • Add 80 µL of each whole blood/well in PP low-bind 96-well plate. • Incubate for 2h30 to 3 h at 37° C. and 5% CO2. • Add 10 µL of compounds 10× or control in wells following plate layout. • Incubate for 30 min at 37° C. and 5% CO2. • Add 11 µL ATP 10× or control in all wells following plate layout. • Incubate for 1 h at 37° C. and 5% CO2. • Collect 1 h timepoint → Centrifuge the plate 1000 g 10 min, collect the plasma (40 to 50 µL) and store at -20° C. • Measure IL-1β levels by AlphaLISA
as §4, §5

Experiment [3] relates to NLRP3 inflammasome pathway. Description: NLRP3 inflammasome pathway activation assay, Nigericin stimulation, IL-1β release (AlphaLISA). Conditions: PMA-differentiated, LPS-primed human monocyte-like cells, Nigericin 3.75 µM for 3 h. The protocol: as §1, §2, §3, §4, §5

The pIC50 is the IC50 on a negative log10 scale, so that one unit is a factor of ten. High values mean a low IC50, low ones a high IC50.

pIC50: −log10 of the molar value. Some results are limits rather than exact numbers.

Consider `O=C(OC1CCCC1)C1(c2ccon2)CN=C(Nc2c3c(cc4c2CCC4)CCC3)O1` (centres unmarked) [Example 58, Cyclopentyl 2-((1,2,3,5,6,7-hexahvdro-s-indacen-4-vl)amino)-5-(isoxazol-3-yl)-4,5-dihydrooxazole-5-carboxylate], for which the pIC50 in experiment [1] is above 6.00; in experiment [2], 5.00 to 6.00.
The matching figures for `CC(C)OC(=O)C1(c2ccon2)CN=C(Nc2c3c(cc4c2CCC4)CCC3)O1` (single isomer, unassigned) [Example 59, isopropyl 2-((1,2,3,5,6,7-hexahydro-s-indacen-4-yl)amino)-5-(isoxazol-3-yl)-4,5-dihydrooxazole-5-carboxylate]: above 6.00 and 5.00 to 6.00.
On to `O=C(O)C1(c2nccs2)CN=C(Nc2c3c(cc4c2CCC4)CCC3)O1` (centres unmarked) [Example 24, 2-((1,2,3,5,6,7-hexahydro-s-indacen-4-yl)amino)-5-(thiazol-2-yl)-4,5-dihydrooxazole-5-carboxylic acid], for which the pIC50 in experiment [1] and in experiment [2] was 5.00 to 6.00 each time.
For the compound `CCOC(=O)C(O)(CNC(=S)Nc1c2c(cc3c1CCC3)CCC2)c1cc(C(C)(C)O)on1` (single isomer, unassigned) [Example 14a, Ethyl 3-(3-(1,2,3,5,6,7-hexahydro-s-indacen-4-yl)thioureido)-2-hydroxy-2-(5-(2-hydroxypropan-2-yl)isoxazol-3-yl)propanoate], the negative logarithm of the IC50 (pIC50) in experiment [1] and in experiment [3] was above 6.00 each time.
In the case of `CCOC(=O)C1(c2cccc(Cl)c2)CN=C(Nc2c3c(cc4c2CCC4)CCC3)O1` (centres unmarked) [Example 13, Ethyl 5-(3-chlorophenyl)-2-((1,2,3,5,6,7-hexahydro-s-indacene-4-yl)amino)-4,5-dihvdrooxazole-5-carboxylate], the pIC50 in experiment [1] is above 6.00; in experiment [3] (Homo sapiens, 3 h), above 6.00.
For `CCOC(=O)C(O)(CNC(=S)Nc1c2c(cc3c1CCC3)CCC2)c1cc(C(C)C)on1` (centres unmarked) [Example 46, ethyl 3-(3-(1,2,3,5,6,7-hexahydro-s-indacen-4-yl)thioureido)-2-hydroxy-2-(5-isopropylisoxazol-3-yl)propanoate], the pIC50 was 5.00 to 6.00 in experiment [1] and above 6.00 in experiment [3].
On to `CC(C)(O)c1cc(C2(C(=O)O)CN=C(Nc3c4c(cc5c3CCC5)CCC4)O2)no1` (centres unmarked) [Example 22, 2-((1,2,3,5,6,7-hexahydro-s-indacen-4-yl)amino)-5-(5-(2-hydroxypropan-2-yl)isoxazol-3-yl)-4,5-dihydrooxazole-5-carboxylic Acid], for which the negative logarithm of the IC50 (pIC50) was above 6.00 in experiment [1] and 5.00 to 6.00 in experiment [3] (Homo sapiens, 3 h).
Take `O=C(O)C1(c2ccon2)CN=C(Nc2c3c(cc4c2CCC4)CCC3)O1` (centres unmarked) [Example 29, 2-((1,2,3,5,6,7-hexahydro-s-indacen-4-yl)amino)-5-(isoxazol-3-yl)-4,5-dihydrooxazole-5-carboxylate]: the values for the negative-log IC50 (pIC50) in experiment [1] and in experiment [2] were above 6.00 and 5.00 to 6.00, respectively.
On to `CCOC(=O)C1(c2nccn2C)CN=C(Nc2c3c(cc4c2CCC4)CCC3)O1` (centres unmarked) [Example 3, Ethyl 2-((1,2,3,5,6,7-hexahvdro-s-indacen-4-vl)amino)-5-(1-methyl-1H-imidazol-2-yl)-4,5-dihydrooxazole-5-carboxylate], for which the pIC50 is above 6.00 in experiment [1] and above 6.00 in experiment [3] (Homo sapiens, 3 h).
For “Ethyl 2-((1,2,3,5,6,7-hexahydro-s-indacen-4-yl)amino)-5-(tetrahvdro-2H-pyran-4-yl)-4,5-dihydrooxazole-5-carboxylate [Example 12]”, the pIC50 in experiment [1] and in experiment [3] was 5.00 to 6.00 each time.
